Where two headings read alike, the source gives them in different places.
How the values were obtained:
[1] = target: sigma receptor ([3H]DTG site); assay: In Vitro Sigma Receptor Binding, [3H]DTG; conditions: guinea pig brain; 45 minutes at 25° C.
Method: (§1) For both assays frozen guinea pig brains (PelFreez Biologicals, Rogers, AK) were thawed and homogenized in 10 volumes (w/v) of ice cold 0.32M sucrose using 10 strokes of a motor-drivenglass-fitted teflon pestle adjusted to 600 rpm. The homogenate was centrifuged (4° C.) at 900× g for 10 minutes and the resultant supernatant collected and centrifuged at 22,000×g for 20 minutes. The pellet obtained from the centrifugation was resuspended in 10 volumes of 50 mM Tris HCl (pH 7.4, 25° C.) and incubated for 30 minutes at 37° C. Following the preincubation, the homogenate was centrifuted at 22,000×g for 20 minutes and the final pellet was resuspended in buffer to a protein concentration of 0.5-1.0 mg/mL for use in the assay.
(§2) Binding reactions were initiated by the addition of tissue (800 μL) to tubes containing assay buffer, the radioligand (final concentration 1-3 nM) and the compound of interest. Haloperidol (10 μM) and (+)-3-PPP (10 μM) were used to determine the levels of […] [^3 H]DTG and [^3 H](+)PPP binding, respectively. Final assay volume was 1 mL. Reactions were allowed to proceed for 45 minutes at 25° C. and terminated by rapid filtration over Whatman GF/B filters which were washed 3 times with 5 mL of cold buffer. Radioactivity trapped on the filters was determined using routine methods. […] All assays were performed using triplicate determinations. For comparison purposes, IC50 values are reported rather than Ki values.

[2] = target: T1, sigma receptor ([3H](+)-3-PPP site) (Cavia porcellus, UniProt Q60492); assay: In Vitro Sigma Receptor Binding, [3H](+)-3-PPP; set-up: species or system guinea pig; conditions: guinea pig brain; 45 minutes at 25° C.; read-out: Sigma [3H](+)-3-PPP binding IC50
T1 construct: frozen guinea pig brains; tissue PelFreez Biologicals, Rogers, AK; host or cells: guinea pig brain membranes
Method: as §1, §2

[3] = target: T2, dopamine (D-2) receptors (Rattus norvegicus, UniProt P61169); assay: In Vitro Dopamine (D-2) Receptor Binding, [3H]sulpiride
T2 construct: the corpus striatum was dissected and homogenized; from tissue; host or cells: rat corpus striatum membranes
Method: On the day of assay, rats were sacrificed by decapitation, the corpus striatum was dissected and homogenized in 20 volumes of ice-cold 50 mM Tris HCl (pH 7.5, 25° C.). The homogenate was centrifuged (4° C.) at 48,000×g for 10 minutes and the resulting pellet was resuspended in 20 volumes of fresh buffer and recentrifuged. […] A portion of the suspension (800 μL) was added in triplicate to tubes containing 3 nM [^3 H]sulpiride and the test compound. The final assay volume was 1 mL; haloperidol (10 μM) was used to determine non-specific binding. Following a 60 minute incubation at 25° C., the reactions were terminated by rapid filtration over Whatman GF/B filters which had been pretreated in a solution of 0.3% (w/v) of aqueous polyethylenimine. Filters were washed three times using 5 mL of ice-cold buffer and processed using standard procedures to determine radioactivity. IC50 values were obtained from concentration-response curves in which a number of concentrations of test compound were examined. Ki values were determined using the Cheng-Prusoff equation.

[4] = target: T3, serotonin 5-HT2 receptors (Rattus norvegicus, UniProt P14842); assay: In Vitro Serotonin (5-HT2) Receptor Binding, [3H]ketanserin; conditions: for inhibition at 1 µM: read-out: Serotonin 5-HT2 [3H]ketanserin, % @ 1 μM; for Ki: rat cortical membranes, 1 nM [3H]ketanserin
T3 construct: Rat cortical synaptosomal membranes were prepared on the day of assay; from tissue; host or cells: rat frontal cortex synaptosomal membranes
Method: The potency of compounds to inhibit the specific binding of [^3 H]ketanserin (84.2 Ci/mM) to serotonin 5-HT2 receptors was determined as detailed previously [J. E. Leysen, C. J. E. Niemegers, J. M. Van Neuten and P. M. Laduron, Mol. Pharmacol., 21, 301-314 (1982)]. Rat cortical synaptosomal membranes were prepared on the day of assay. Animals were sacrified by decapitation, the frontal cortex was removed and homogenized in 10 volumes (w/v) of ice-cold 0.32M sucrose using a motor driven teflon pestle fitted to a glass tube. The synaptosomal pellet was suspended in 50 mM Tris HCl (pH 7.6 at 25° C.) to a concentration of 7.5 mg original wet weight/mL. For the binding reaction, 400 μL of this tissue suspension was added to polypropylene tubes containing 50 mM Tris HCl and [^3 H]ketanserin (final concentration of 1 nM) in a final assay volume of 0.5 mL. Following a 15 minute incubation at 37° C., the binding reaction was terminated by rapid vacuum filtration over Whatman GF/B filters (presoaked in 0.1% PEI) followed by 3×4 mL washes with ice cold 50 mM Tris HCl. Nonspecific binding was assessed in the presence of 10 μM methysergide. All incubations were performed in triplicate. IC50 values were determined using log logit analysis.

[5] = rat corpus striatum, 3 nM [3H]sulpiride, read-out: Dopamine D-2 [3H]sulpiride Ki
[6] = Dopamine D-2 [3H]sulpiride Ki, rat corpus striatum, 3 nM [3H]sulpiride

T1 sequence (Q60492 whole entry): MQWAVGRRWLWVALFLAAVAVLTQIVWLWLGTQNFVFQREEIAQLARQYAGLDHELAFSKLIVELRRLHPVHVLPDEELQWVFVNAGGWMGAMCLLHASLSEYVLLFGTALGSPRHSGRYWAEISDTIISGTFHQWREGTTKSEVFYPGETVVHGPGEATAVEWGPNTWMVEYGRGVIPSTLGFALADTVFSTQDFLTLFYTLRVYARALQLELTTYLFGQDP
T2 sequence (P61169 whole entry): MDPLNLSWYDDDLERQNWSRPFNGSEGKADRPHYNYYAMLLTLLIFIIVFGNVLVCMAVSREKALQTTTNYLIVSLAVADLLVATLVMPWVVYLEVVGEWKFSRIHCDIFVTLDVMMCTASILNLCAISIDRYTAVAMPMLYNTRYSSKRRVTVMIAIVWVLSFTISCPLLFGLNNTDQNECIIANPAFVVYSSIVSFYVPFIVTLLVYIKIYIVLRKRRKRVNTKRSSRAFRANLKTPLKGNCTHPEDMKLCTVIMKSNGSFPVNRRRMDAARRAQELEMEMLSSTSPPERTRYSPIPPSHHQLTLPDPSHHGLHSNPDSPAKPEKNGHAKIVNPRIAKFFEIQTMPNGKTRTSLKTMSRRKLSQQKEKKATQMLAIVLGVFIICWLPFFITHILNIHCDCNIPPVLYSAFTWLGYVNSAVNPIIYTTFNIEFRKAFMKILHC
T3 sequence (P14842 whole entry): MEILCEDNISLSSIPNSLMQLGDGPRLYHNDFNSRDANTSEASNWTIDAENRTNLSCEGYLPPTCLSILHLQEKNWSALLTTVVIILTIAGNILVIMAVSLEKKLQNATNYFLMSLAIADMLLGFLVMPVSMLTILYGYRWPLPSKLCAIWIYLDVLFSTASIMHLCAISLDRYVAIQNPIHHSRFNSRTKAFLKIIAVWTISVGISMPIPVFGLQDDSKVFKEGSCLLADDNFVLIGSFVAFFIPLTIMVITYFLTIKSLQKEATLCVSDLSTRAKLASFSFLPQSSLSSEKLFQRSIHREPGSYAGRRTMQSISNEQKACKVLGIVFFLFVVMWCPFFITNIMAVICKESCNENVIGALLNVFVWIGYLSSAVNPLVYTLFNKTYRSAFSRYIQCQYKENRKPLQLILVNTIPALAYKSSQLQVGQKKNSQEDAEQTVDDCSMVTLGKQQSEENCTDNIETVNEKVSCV

Row | SMILES | IC50 [1] [nM] | IC50 [2] [nM] | Ki [3, 5] [nM] | inhibition at 1 µM [4] [%] | Ki [4] [nM] | Ki ([3]; read-out: Dopamine D-2 [3H]sulpiride Ki) [nM] | Ki [3, 6] [nM]
1 | CC(CCc1ccccc1)N1C2CCC1c1c([nH]c3ccccc13)C2 (single isomer, unassigned) [1 (high Rf) H H CH(CH3)(CH2)2 Ph 2] | 23 | 1500 | 1110 | – | – | – | –
2 | CC(CCc1ccccc1)N1C2CCC1c1c([nH]c3ccccc13)C2 (single isomer, unassigned) [1 (low Rf) H H CH(CH3)(CH2)2 Ph 2] | 119 | 1160 | 530 | 72.8 | – | – | –
3 | Clc1ccc(CCN2C3CCC2c2c([nH]c4ccccc24)C3)cc1Cl (centres unmarked) [1 H H (CH2)2 3,4-Cl2 Ph 2] | – | – | 3430 | 6.7 | – | – | –
4 | CCCN1C2CCC1c1c([nH]c3ccccc13)C2 (centres unmarked) [1 H H (CH2)2 CH3 2] | – | – | 14400 ± 4400 | – | – | – | –
5 | C=CCCN1C2CCC1c1c([nH]c3ccccc13)C2 (centres unmarked) [1 H H (CH2)2 CHCH2 2] | – | – | 710 | 12.3 | – | – | –
6 | c1ccc(C(CCN2C3CCC2c2c([nH]c4ccccc24)C3)c2ccccc2)cc1 (centres unmarked) [1 H H (CH2)2 CHPh2 2] | – | – | 4520 | 27.3 | – | – | –
7 | Clc1ccc(OCCN2C3CCC2c2c([nH]c4ccccc24)C3)cc1 (centres unmarked) [1 H H (CH2)2 O-4-ClPh 2] | 268 ± 38 | 5980 ± 3510 | 530 | – | 377 | – | –
8 | c1ccc(OCCN2C3CCC2c2c([nH]c4ccccc24)C3)cc1 (centres unmarked) [1 H H (CH2)2 OPh 2] | 110 ± 14 | 534 ± 57 | 2600 | – | 20 | – | –
9 | c1ccc(CCN2C3CCC2c2c([nH]c4ccccc24)C3)cc1 (centres unmarked) [1 H H (CH2)2 Ph 2] | – | – | 840 | 8.8 | – | – | –
10 | O=C(CCCN1C2CCC1c1c([nH]c3ccccc13)C2)c1ccc(F)cc1 (centres unmarked) [1 H H (CH2)3 CO 4-FPh 2] | – | – | 280 | – | 0.82 | – | –
11 | Fc1ccc(OCCCN2C3CCC2c2c([nH]c4ccccc24)C3)cc1 (centres unmarked) [1 H H (CH2)3 O-4-FPh 2] | – | – | – | – | 11.4 | – | –
12 | c1ccc(OCCCN2C3CCC2c2c([nH]c4ccccc24)C3)cc1 (centres unmarked) [1 H H (CH2)3 OPh 2] | 132 ± 16 | 262 ± 19 | 1270 ± 260 | – | 22.9 | – | –
13 | c1ccc(CCCN2C3CCC2c2c([nH]c4ccccc24)C3)cc1 (centres unmarked) [1 H H (CH2)3 Ph 2] | – | – | 2600 | – | 106 | – | –
14 | Fc1ccc(CCCCN2C3CCC2c2c([nH]c4ccccc24)C3)cc1 (centres unmarked) [1 H H (CH2)4 4-FPh 2] | – | – | – | – | 22.1 | 1160 | –
15 | O=C(CCCCN1C2CCC1c1c([nH]c3ccccc13)C2)c1ccc(F)cc1 (centres unmarked) [1 H H (CH2)4 CO 4-FPh 2] | 131 | 224 | – | – | – | – | 3.5
16 | c1ccc(OCCCCN2C3CCC2c2c([nH]c4ccccc24)C3)cc1 (centres unmarked) [1 H H (CH2)4 OPh 2] | 88 ± 15 | 205 | 100 | – | 48 | – | –
17 | c1ccc(CCCCN2C3CCC2c2c([nH]c4ccccc24)C3)cc1 (centres unmarked) [1 H H (CH2)4 Ph 2] | – | – | – | – | 56.5 | – | 720
18 | O=C1CC2(CCCC2)CC(=O)N1CCCCN1C2CCC1c1c([nH]c3ccccc13)C2 (centres unmarked) [1 H H (CH2)4 [drawing 3] 2] | – | – | – | 12 | – | – | 2380 ± 560
19 | c1ccc(CCCCCN2C3CCC2c2c([nH]c4ccccc24)C3)cc1 (centres unmarked) [1 H H (CH2)5 Ph 2] | 107 ± 59 | 348 ± 70 | 680 ± 230 | – | 42.5 | – | –
20 | c1ccc2c3c([nH]c2c1)CC1CCC3N1 (centres unmarked) [1 H H -- H 2] | – | 2180 | 100000 | 0.2 | – | – | –

— patent US5250537A, “5,6,7,8,9,10-hexahydro-7 ,10-iminocyclohept[b]indole,-6,7,8,9,10-hexahydro-7,11-imino-5H-cyclooct[ b]indole and substituted derivatives” (Scios Nova Inc., priority 1992, dated 1993)
